Laboratory results taken from US7220414B2, “Degradable polyacetal polymers” (A.P. Pharma, Inc., priority 2000, dated 2007).

Test system: red blood cell
Assay: red blood cell (RBC) lysis assay
Source text: The degradation products were obtained by dissolving polyacetal 22 in phosphate buffered saline (PBS), adjusting the pH to 1–2 by the addition of HCl to allow the polyacetal to degrade, then adding a small amount of NaOH to readjust the pH to 7.4.

Dextran
red blood cell (RBC) lysis: did not display RBC lysis
